The values below are quoted from earlier work in PubChem BioAssay AID1259409 (Chemical Carcinogenesis Research Information System (CCRIS), 2018).

Molecules are shown by their SMILES.

In this series the test system is rodent chemically induced tumor inhibition, incidence and multiplicity. The experiment in a line: CCRIS tumor inhibitor studies. Particulars: Route [Inhibitor]: ORAL, Species: RAT, Strain/Sex: SPRAGUE-DAWLEY/FEMALE, Target Tissue: Type of Lesion: MAMMARY GLAND: TUMOR, Promoter: NONE USED.

As to `CCC1(c2ccc(N)cc2)CCC(=O)NC1=O` (configuration not stated), where the note is “Carcinogen: N-METHYL-N-NITROSOUREA, 684-93-5, Dose [Inhibitor]: 0, 400 MG/KG IN DIET FOR THE DURATION OF STUDY BEGINNING 7 D PRIOR TO CARCINOGEN DOSE (STUDY DURATION: 187 D), Dose [Carcinogen]: 50 MG/KG BW ONCE”, the “tumour outcome (control, treated, inhibition, significance)” value was 100%, 100%, 0%, not significant.
As to `COC(=O)[C@H](CCSC)NC(C)=O`, the “tumour outcome (control, treated, inhibition, significance)” value (Carcinogen: 7,12-DIMETHYLBENZ[A]ANTHRACENE, 57-97-6, Dose [Inhibitor]: 0.06 MMOL/G DIET DAILY FOR 17 WK STARTING 1 WK PRIOR TO CARCINOGEN TREATMENT AND CONTINUING THROUGH THE END OF THE STUDY, Dose [Carcinogen]: 12 MG IN 1 ML OLIVE OIL ONCE) is given as 59%, 75%, -27%, not calculated.
